One data set concerns the target SARS-CoV-2 Mpro (Severe acute respiratory syndrome coronavirus 2, UniProt P0DTD1). In words: Mpro enzyme kinetics, Morrison plot Ki determination. Format: biochemical.
The subject of data set [1] is SARS-CoV-2 (isolate USA WA1/2020). It is filed as cell-based. To be noted: read-out: EC50 (antiviral); Calu-3 cells, MOI 0.5, 48 hours.
The target in data set [2] is SARS-CoV-2 main protease (Mpro) (Severe acute respiratory syndrome coronavirus 2, UniProt P0DTD1). In words: SARS-CoV-2 Mpro FRET enzymatic assay. It is filed as biochemical.

Where two headings read alike, the source gives them in different places. A value given as a limit tells only on which side of the number the result lay.

For the compound “N-([1,1’-biphenyl]-4-yl)-2-cyano-N-((S)-2-oxo-2-(((S)-1-phenylethyl)amino)-1-(pyridin-3-yl)ethyl)acetamide [Jun10541R]”, the “cytotoxicity to Calu-3 cells” value with Calu-3 cells was “not cytotoxic”. In addition, the Ki at SARS-CoV-2 Mpro (Morrison equation fit, 20 μM FRET substrate, no preincubation) was 345 nM. The EC50 in data set [1] is 2920 nM.
Take `C[C@H](NC(=O)C(c1cccnc1)N(C(=O)C#CC(C)(C)C)c1ccc(-c2ccccc2)cc1)c1ccccc1` (stereo partly drawn) [Jun10925, N-([1,1’-biphenyl]-4-yl)-4,4-dimethyl-N-(2-oxo-2-(((S)-1-phenylethyl)amino)-1-(pyridin-3-yl)ethyl)pent-2-ynamide]: the IC50 in data set [2] was above 20000 nM.
The same measure, in the same setting: the same measure for `C#CC(=O)N(c1ccc(-c2ccccc2)cc1)C(C(=O)N[C@@H](C)c1ccccc1)c1cccnc1` (stereo partly drawn) [Jun10221R, N-([1,1’-biphenyl]-4-yl)-N-((S)-2-oxo-2-(((S)-1-phenylethyl)amino)-1-(pyridin-3-yl)ethyl)propiolamide]: 20 nM; for `COc1ccc(/C=C(\C#N)C(=O)N(c2ccc(-c3ccccc3)cc2)C(C(=O)N[C@@H](C)c2ccccc2)c2cccnc2)cc1` (stereo partly drawn) [Jun10963S, (E)-N-([1,1’-biphenyl]-4-yl)-2-cyano-3-(4-methoxyphenyl)-N-((R)-2-oxo-2-(((S)-1-phenylethyl)amino)-1-(pyridin-3-yl)ethyl)acrylamide]: above 20000 nM; for `CCCC#CC(=O)N(c1ccc(-c2ccccc2)cc1)C(C(=O)N[C@@H](C)c1ccccc1)c1cccnc1` (stereo partly drawn) [Jun10923, N-([1,1’-biphenyl]-4-yl)-N-(2-oxo-2-(((S)-1-phenylethyl)amino)-1-(pyridin-3-yl)ethyl)hex-2-ynamide]: 2510 nM.
`COc1ccc(/C=C(\C#N)C(=O)N(c2ccc(-c3ccccc3)cc2)C(C(=O)N[C@@H](C)c2ccccc2)c2cccnc2)cc1` (stereo partly drawn) [Jun10963R, (E)-N-([1,1’-biphenyl]-4-yl)-2-cyano-3-(4-methoxyphenyl)-N-((S)-2-oxo-2-(((S)-1-phenylethyl)amino)-1-(pyridin-3-yl)ethyl)acrylamide]: the IC50 in data set [2] amounted to 560 nM. The compound also returned an inhibitory constant (Ki) on SARS-CoV-2 Mpro of 573 nM.

One may read the Ki as a measure of affinity in units of concentration, obtained from inhibition or displacement. By EC50 is commonly meant the midpoint of the concentration-response curve. The IC50 is the concentration needed to halve the response being measured. A high value points to a need for much substance.

(Values after PMC10529912 (European journal of medicinal chemistry, 2023).)
